In patent US20230365592A1 (Agios Pharmaceuticals, Inc., priority 2022, published 2023):

Biological target: T1, human PAH with the R408W mutation (Homo sapiens, UniProt P00439, R408W)
T1 construct: expressed in transfected cells
T1 sequence (P00439 1-452 R408W): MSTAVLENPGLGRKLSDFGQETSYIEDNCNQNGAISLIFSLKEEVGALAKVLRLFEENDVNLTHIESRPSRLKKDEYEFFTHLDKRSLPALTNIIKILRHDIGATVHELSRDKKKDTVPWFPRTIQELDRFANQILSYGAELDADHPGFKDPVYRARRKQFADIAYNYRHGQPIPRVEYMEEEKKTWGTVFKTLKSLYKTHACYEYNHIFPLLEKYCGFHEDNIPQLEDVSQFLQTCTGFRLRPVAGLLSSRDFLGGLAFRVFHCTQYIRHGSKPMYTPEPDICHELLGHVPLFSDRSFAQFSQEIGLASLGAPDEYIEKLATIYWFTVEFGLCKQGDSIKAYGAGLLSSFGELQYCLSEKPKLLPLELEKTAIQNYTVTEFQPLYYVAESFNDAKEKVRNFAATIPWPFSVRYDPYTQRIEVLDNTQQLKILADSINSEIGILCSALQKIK
Test: Cell Based Phenylalanine Flux Assay;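 further: after compound treatment, cells received sepiapterin plus isotope-labelled Phenylalanine for 4 hours, then labelled Tyrosine in the medium was quantified, 10-point 2-fold dilution series run in duplicate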
Details: A375 cells expressing human PAH R408W; 24 hrs compound incubation; 13C-Tyrosine by LC-MS; average where tested multiple times; read-out: AC50

| SMILES | AC50 |
| --- | --- |
| Cc1cccn2nc([C@@H]3c4nc[nH]c4CCN3c3ncc(N)cn3)cc12 [Example 1827, (S)-2-(4-(4-methylpyrazolo[1,5-a]pyridin-2-yl)-6,7-dihydro-1H-imidazo[4,5-c]pyridin-5(4H)-yl)pyrimidin-5-amine] | 0.5 to 1 µM |
| FC(F)c1cccn2nc([C@@H]3c4nc[nH]c4CCN3c3cncc(Cl)n3)cc12 [Example 1829, (S)-5-(6-chloropyrazin-2-yl)-4-(4-(difluoromethyl)pyrazolo[1,5-a]pyridin-2-yl)-4,5,6,7-tetrahydro-1H-imidazo[4,5-c]pyridine] | < 0.5 µM |
| Clc1cccn2nc([C@@H]3c4nc[nH]c4CCN3c3nnc(C4CCC4)o3)cc12 [Example 1831, (S)-2-(4-(4-chloropyrazolo[1,5-a]pyridin-2-yl)-6,7-dihydro-1H-imidazo[4,5-c]pyridin-5(4H)-yl)-5-cyclobutyl-1,3,4-oxadiazole] | 0.5 to 1 µM |
| Nc1cnc(N2CCc3[nH]cnc3[C@H]2c2cc3c(C(F)(F)F)cccn3n2)nc1 [Example 1835, (S)-2-(4-(4-(trifluoromethyl)pyrazolo[1,5-a]pyridin-2-yl)-1,4,6,7-tetrahydro-5H-imidazo[4,5-c]pyridin-5-yl)pyrimidin-5-amine] | 0.5 to 1 µM |
| O=C(c1nnc(C2CC2)o1)N1CCc2[nH]cnc2[C@@H]1c1cc2c(C3CC3)cccn2n1 [Example 1839, (R)-(5-cyclopropyl-1,3,4-oxadiazol-2-yl)(4-(4-cyclopropylpyrazolo[1,5-a]pyridin-2-yl)-1,4,6,7-tetrahydro-5H-imidazo[4,5-c]pyridin-5-yl)methanone] | > 5 µM |
| Cc1cccn2nc([C@@H]3c4nc[nH]c4CCN3c3nnc(-c4c(F)cccc4F)o3)cc12 [Example 1845, (S)-2-(2,6-difluorophenyl)-5-(4-(4-methylpyrazolo[1,5-a]pyridin-2-yl)-6,7-dihydro-1H-imidazo[4,5-c]pyridin-5(4H)-yl)-1,3,4-oxadiazole] | < 0.5 µM |
| Fc1cccc(F)c1-c1nnc(N2CCc3[nH]cnc3[C@H]2c2cc3c(C(F)(F)F)cccn3n2)o1 [Example 1847, (S)-2-(2,6-difluorophenyl)-5-(4-(4-(trifluoromethyl)pyrazolo[1,5-a]pyridin-2-yl)-6,7-dihydro-1H-imidazo[4,5-c]pyridin-5(4H)-yl)-1,3,4-oxadiazole] | < 0.5 µM |
| FC(F)(F)c1nnc(N2CCc3[nH]cnc3[C@@H]2c2cc3c(Cl)cccn3n2)o1 [Example 1848, (R)-2-(4-(4-chloropyrazolo[1,5-a]pyridin-2-yl)-6,7-dihydro-1H-imidazo[4,5-c]pyridin-5(4H)-yl)-5-(trifluoromethyl)-1,3,4-oxadiazole] | > 5 µM |
| Cc1cccc2cc([C@@H]3c4nc[nH]c4CCN3c3nnc(C(F)(F)F)o3)nn12 [Example 1850, (S)-2-(4-(7-methylpyrazolo[1,5-a]pyridin-2-yl)-6,7-dihydro-1H-imidazo[4,5-c]pyridin-5(4H)-yl)-5-(trifluoromethyl)-1,3,4-oxadiazole] | 0.5 to 1 µM |
| Nc1cnc(N2CCc3[nH]cnc3[C@H]2c2cc3c(C(F)F)cccn3n2)nc1 [Example 1852, (S)-2-(4-(4-(difluoromethyl)pyrazolo[1,5-a]pyridin-2-yl)-1,4,6,7-tetrahydro-5H-imidazo[4,5-c]pyridin-5-yl)pyrimidin-5-amine] | 0.5 to 1 µM |
| Nc1cnc(N2CCc3[nH]cnc3[C@@H]2c2cc3c(C(F)F)cccn3n2)nc1 [Example 1853, (R)-2-(4-(4-(difluoromethyl)pyrazolo[1,5-a]pyridin-2-yl)-1,4,6,7-tetrahydro-5H-imidazo[4,5-c]pyridin-5-yl)pyrimidin-5-amine] | 1 to 5 µM |
| O=C(c1nnc(-c2ncccc2F)o1)N1CCc2[nH]cnc2[C@@H]1c1cc2c(C3CC3)cccn2n1 [Example 1854, (R)-(4-(4-cyclopropylpyrazolo[1,5-a]pyridin-2-yl)-1,4,6,7-tetrahydro-5H-imidazo[4,5-c]pyridin-5-yl)(5-(3-fluoropyridin-2-yl)-1,3,4-oxadiazol-2-yl)methanone] | > 5 µM |
| O=C(c1nnc(-c2ncccc2F)o1)N1CCc2[nH]cnc2[C@H]1c1cc2c(C3CC3)cccn2n1 [Example 1855, (S)-(4-(4-cyclopropylpyrazolo[1,5-a]pyridin-2-yl)-1,4,6,7-tetrahydro-5H-imidazo[4,5-c]pyridin-5-yl)(5-(3-fluoropyridin-2-yl)-1,3,4-oxadiazol-2-yl)methanone] | < 0.5 µM |
| Fc1ccc(-c2nnc(N3CCc4[nH]cnc4[C@H]3c3cc4ccccn4n3)o2)cc1 [Example 1861, (S)-2-(4-fluorophenyl)-5-(4-(pyrazolo[1,5-a]pyridin-2-yl)-1,4,6,7-tetrahydro-5H-imidazo[4,5-c]pyridin-5-yl)-1,3,4-oxadiazole] | < 0.5 µM |
| Cn1cc(-c2nnc(C(=O)N3CCc4[nH]cnc4[C@H]3c3cc4c(Br)cccn4n3)o2)cn1 [Example 1868, (S)-(4-(4-bromopyrazolo[1,5-a]pyridin-2-yl)1,4,6,7-tetrahydro-5H-imidazo[4,5-c]pyridin-5-yl)(5-(1-methyl-1H-pyrazol-4-yl)-1,3,4-oxadiazol-2-yl)methanone] | < 0.5 µM |

Now from value to molecule:

| AC50 | SMILES |
| --- | --- |
| 1 to 5 µM | FC(F)c1cccn2nc([C@H]3c4nc[nH]c4CCN3c3cncc(Cl)n3)cc12 [Example 1828, (R)-5-(6-chloropyrazin-2-yl)-4-(4-(difluoromethyl)pyrazolo[1,5-a]pyridin-2-yl)-4,5,6,7-tetrahydro-1H-imidazo[4,5-c]pyridine] |
| > 5 µM | Clc1cccn2nc([C@H]3c4nc[nH]c4CCN3c3nnc(C4CCC4)o3)cc12 [Example 1830, (R)-2-(4-(4-chloropyrazolo[1,5-a]pyridin-2-yl)-6,7-dihydro-1H-imidazo[4,5-c]pyridin-5(4H)-yl)-5-cyclobutyl-1,3,4-oxadiazole] |
| 0.5 to 1 µM | CC(C)(C)c1nnc(N2CCc3[nH]cnc3[C@H]2c2cc3c(Cl)cccn3n2)o1 [Example 1833, (S)-2-(tert-butyl)-5-(4-(4-chloropyrazolo[1,5-a]pyridin-2-yl)-6,7-dihydro-1H-imidazo[4,5-c]pyridin-5(4H)-yl)-1,3,4-oxadiazole] |
| 0.5 to 1 µM | Nc1cnc(N2CCc3[nH]cnc3[C@H]2c2cc3c(F)cccn3n2)nc1 [Example 1837, (S)-2-(4-(4-fluoropyrazolo[1,5-a]pyridin-2-yl)-1,4,6,7-tetrahydro-5H-imidazo[4,5-c]pyridin-5-yl)pyrimidin-5-amine] |
| < 0.5 µM | O=C(c1nnc(C2CC2)o1)N1CCc2[nH]cnc2[C@H]1c1cc2c(C3CC3)cccn2n1 [Example 1838, (S)-(5-cyclopropyl-1,3,4-oxadiazol-2-yl)(4-(4-cyclopropylpyrazolo[1,5-a]pyridin-2-yl)-1,4,6,7-tetrahydro-5H-imidazo[4,5-c]pyridin-5-yl)methanone] |
| < 0.5 µM | CC(C)(C)c1nnc(C(=O)N2CCc3[nH]cnc3[C@H]2c2cc3c(C4CC4)cccn3n2)o1 [Example 1840, (S)-(5-(tert-butyl)-1,3,4-oxadiazol-2-yl)(4-(4-cyclopropylpyrazolo[1,5-a]pyridin-2-yl)-1,4,6,7-tetrahydro-5H-imidazo[4,5-c]pyridin-5-yl)methanone] |
| > 5 µM | CC(C)(C)c1nnc(C(=O)N2CCc3[nH]cnc3[C@@H]2c2cc3c(C4CC4)cccn3n2)o1 [Example 1841, (R)-(5-(tert-butyl)-1,3,4-oxadiazol-2-yl)(4-(4-cyclopropylpyrazolo[1,5-a]pyridin-2-yl)-1,4,6,7-tetrahydro-5H-imidazo[4,5-c]pyridin-5-yl)methanone] |
| > 5 µM | Cc1cccn2nc([C@H]3c4nc[nH]c4CCN3c3nnc(-c4c(F)cccc4F)o3)cc12 [Example 1844, (R)-2-(2,6-difluorophenyl)-5-(4-(4-methylpyrazolo[1,5-a]pyridin-2-yl)-6,7-dihydro-1H-imidazo[4,5-c]pyridin-5(4H)-yl)-1,3,4-oxadiazole] |
| < 0.5 µM | FC(F)(F)c1nnc(N2CCc3[nH]cnc3[C@H]2c2cc3c(Cl)cccn3n2)o1 [Example 1849, (S)-2-(4-(4-chloropyrazolo[1,5-a]pyridin-2-yl)-6,7-dihydro-1H-imidazo[4,5-c]pyridin-5(4H)-yl)-5-(trifluoromethyl)-1,3,4-oxadiazole] |
| 1 to 5 µM | Cc1cccc2cc([C@H]3c4nc[nH]c4CCN3c3nnc(C(F)(F)F)o3)nn12 [Example 1851, (R)-2-(4-(7-methylpyrazolo[1,5-a]pyridin-2-yl)-6,7-dihydro-1H-imidazo[4,5-c]pyridin-5(4H)-yl)-5-(trifluoromethyl)-1,3,4-oxadiazole] |
| < 0.5 µM | Cc1nnc(C(=O)N2CCc3[nH]cnc3[C@H]2c2cc3c(C(C)C)cccn3n2)o1 [Example 1858, (S)-(4-(4-isopropylpyrazolo[1,5-a]pyridin-2-yl)-1,4,6,7-tetrahydro-5H-imidazo[4,5-c]pyridin-5-yl)(5-methyl-1,3,4-oxadiazol-2-yl)methanone] |
| > 5 µM | Fc1cccc(F)c1-c1nnc(N2CCc3[nH]cnc3[C@@H]2c2cc3c(C(F)F)cccn3n2)o1 [Example 1862, (R)-2-(4-(4-(difluoromethyl)pyrazolo[1,5-a]pyridin-2-yl)-1,4,6,7-tetrahydro-5H-imidazo[4,5-c]pyridin-5-yl)-5-(2,6-difluorophenyl)-1,3,4-oxadiazole] |
| < 0.5 µM | Fc1cccc(F)c1-c1nnc(N2CCc3[nH]cnc3[C@H]2c2cc3c(C(F)F)cccn3n2)o1 [Example 1863, (S)-2-(4-(4-(difluoromethyl)pyrazolo[1,5-a]pyridin-2-yl)-1,4,6,7-tetrahydro-5H-imidazo[4,5-c]pyridin-5-yl)-5-(2,6-difluorophenyl)-1,3,4-oxadiazole] |
